{
  "source": "patent US20040097534A1",
  "about": "“Composition for the protection and regeneration of nerve cells containing berberine derivatives” (EUGENBIO INC., priority 2001, published 2004)",
  "key": {"[1]": {"system": "nerve cells in CA1, dentate gyrus and entorhinal cortex", "test": "Animal model for dementia (ibotenic acid into entorhinal cortex), calbindin-positive neuron count", "assay_type": "in vivo, rat", "method": "After white rat brain was fixed with a stereotaxic frame, 1.5 μl (1 mg/ml) of ibotenic acid and PBS, or 1.5 μl (1 mg/ml) of berberine was injected into the entorhinal cortex region using a microinjector to prepare a model for dementia. […]\nBrain was fixed with 4% paraformaldehyde and cryosected to a thickness of 40 μm, and then the cryosected brain was permeablized with 0.5% Triton X-100 for 20 minutes and blocked using 15% blocking serum for 2 hours. After reacting with anti-calbindin antibody at a temperature 4° C. for 16 hours and then further reacting with FITC-labeled secondary antibody or rhodamin (TRITC)-labeled secondary antibody for 1 hour, the cells were fixed on a slide before examining under a confocal microscope.\nAs an animal model for dementia, ibotenic acid was microinjected into the entorhinal cortex of adult rat brain using a stereotaxic frame.\nFirst, an adult rat was anesthetized, and its head was fixed with a stereotaxic frame. Subsequently, 1.5 μl (1 mg/ml) of ibotenic acid was injected into the entorhinal cortex region to prepare a model for dementia, and then berberine was injected into the same site. 2 weeks after operation, brain tissue sections were counter-stained with hematocylin to examine apoptosis and protective effect. After fluorescence-staining the cells, regions used for cell count were represented as squares (FIG. 14). In addition, the cells were fluorescence-stained with calbindin antibody, a nerve-specific marker, to examine nerve cell survival (see, Tables 8 to 10, FIGS. 11 and 12)."}, "SH-SY5Y cells": {"system": "SH-SY5Y cells", "test": "MTT assay, SH-SY5Y survival under oxidative stress (H2O2)", "assay_type": "cell-based, human", "method": "SH-SY5Y cells were treated with H2O2 for 30 minutes to induce cell injuries. 3 hours before the cells were treated with H2O2, berberine (0.25˜3.5 μg) was added to cell culture to examine its cell protection effect (see, Table 4 and FIG. 4b)."}, "[2]": {"system": "pyramidal nerve cells in the hippocampal CA1 region", "test": "Forebrain ischemia induced by 4-vessel occlusion (4-VO), viable CA1 cells", "assay_type": "in vivo, Wister male white rats", "conditions": "berberine i.p. 0 and 90 minutes after ischemia induction, 1 week after; sham 308±6.6, saline 28±3.8", "method": "A 4-VO model was prepared by a modified method of Pulsinelli, et al (Ann. Neurol. 11, 491-498(1982)). Wister male white rats weighing about […] were anesthetized with 5% isoflurane contained in a mixture of nitrogen and oxygen (70:30), and then surgery was performed under anesthetization while maintaining the concentration of isoflurane at 1.5%.\nFirst, the throat region was incised, and then silicone tube rings were inserted into common carotid arteries to perform reperfusion after ischemia induction. Upon inducing ischemia, in order to block blood circulation through microvessels, a thread was penetrated so that the trachea, esophagus, external jugular veins and common carotid arteries of the rat were positioned to the front, and cervical and paravertebral muscles of the rat were positioned to the back. Thereafter, the wounds were sutured with operating clips.\nNext, the head of the rat was fixed on a stereotaxic apparatus to operate on the occiput, and then the tail was fixed so that it descended downwardly at an angle of 30°. […]\nWhile body temperatures of the rats were measured at intervals of 30 minutes for 2 hours, and thereafter measured at intervals of 1 hour for 3 hours after ischemia induction, the rats were maintained at 37±0.5° C. using a temperature-controlling heater. The body temperature was measured by inserting a probe into the rectum to a depth of 6 cm. […]"}, "[3]": {"system": "neuromuscular junctions of hindlimb muscles", "test": "Regeneration of nerve endings at neuromuscular junctions after sciatic nerve crush", "assay_type": "in vivo, white rat", "conditions": "4 weeks after operation, hindlimb muscle", "excerpt": "In order to see whether berberine influences the regeneration of nerve endings in the neuromuscular junctions, 4 weeks after operation, hindlimb muscles connected to sciatic nerves were separated and cryosected. The neuromuscular junctions were stained using beta-tubulin isotypeIII and neurofilament, which are nerve markers."}, "[4]": {"conditions": "Ibotenic Acid + Berberine, 2 weeks after operation"}, "[5]": {"conditions": "berberine injected after ibotenic acid"}, "[6]": {"conditions": "N2, H2O2 + berberine 0.25 μg/ml"}},
  "note": "Where “and” joins values, the source holds several entries; their conditions need not be identical. Equal entries are not always repeated. Entries after “also recorded” stand apart in the source; their conditions may differ.",
  "data": [
    {"smiles": "COc1ccc2cc3[n+](cc2c1OC)CCc1cc2c(cc1-3)OCO2", "note": "[Berberine, 7,8,13,13a-tetradihydro-9,10-dimethoxy-2,3-(methylenedioxy) berbinium]", "values": [
      {"measurement": "cell number (%) relative to Ibotenic Acid, CA, average", "setting": "[1]; Berberine alone", "value": 311, "unit": "%"},
      {"measurement": "cell number (%) relative to Ibotenic Acid, DG, average", "setting": "[1]; Berberine alone", "value": 204, "unit": "%"},
      {"measurement": "cell number (%) relative to Ibotenic Acid, ENT, average", "setting": "[1]; Berberine alone", "value": 225, "unit": "%"},
      {"measurement": "cell number relative to Ibotenic Acid average = 100, CA (individual animals #1-#3)", "setting": "[1]; Berberine alone", "value": "355 and 257 and 320"},
      {"measurement": "cell number relative to Ibotenic Acid average = 100, DG (individual animals #1-#3)", "setting": "[1]; Berberine alone", "value": "229 and 189 and 195"},
      {"measurement": "cell number relative to Ibotenic Acid average = 100, ENT (individual animals #1-#3)", "setting": "[1]; Berberine alone", "value": "237 and 208 and 229"},
      {"measurement": "cell number, CA (individual animals #1-#3)", "setting": "[1]; Berberine alone", "value": "174 and 126 and 157"},
      {"measurement": "cell number, CA, AVR", "setting": "[1]; Berberine alone", "value": 152.3},
      {"measurement": "cell number, DG (individual animals #1-#3)", "setting": "[1]; Berberine alone", "value": 421},
      {"measurement": "cell number, DG, AVR", "setting": "[1]; Berberine alone", "value": 375.3},
      {"measurement": "cell number, ENT (individual animals #1-#3)", "setting": "[1]; Berberine alone", "value": "173 and 152 and 167"},
      {"measurement": "cell number, ENT, AVR", "setting": "[1]; Berberine alone", "value": 164},
      {"measurement": "cell number (%) relative to Ibotenic Acid, CA, average", "setting": "[1]; Ibotenic Acid + Berberine", "value": 278, "unit": "%"},
      {"measurement": "cell number (%) relative to Ibotenic Acid, DG, average", "setting": "[1]; Ibotenic Acid + Berberine", "value": 190, "unit": "%"},
      {"measurement": "cell number (%) relative to Ibotenic Acid, ENT, average", "setting": "[1]; Ibotenic Acid + Berberine", "value": 126, "unit": "%"},
      {"measurement": "cell number relative to Ibotenic Acid average = 100, CA (individual animals #1-#3)", "setting": "[1]; Ibotenic Acid + Berberine", "value": "231 and 337 and 267"},
      {"measurement": "cell number relative to Ibotenic Acid average = 100, DG (individual animals #1-#3)", "setting": "[1]; Ibotenic Acid + Berberine", "value": "221 and 157 and 191"},
      {"measurement": "cell number relative to Ibotenic Acid average = 100, ENT (individual animals #1-#3)", "setting": "[1]; Ibotenic Acid + Berberine", "value": "129 and 122 and 127"},
      {"measurement": "cell number, CA, AVR", "setting": "[1]; Ibotenic Acid + Berberine", "value": 136.3},
      {"measurement": "cell number, DG, AVR", "setting": "[1]; Ibotenic Acid + Berberine", "value": 348.7},
      {"measurement": "cell number, ENT, AVR", "setting": "[1]; Ibotenic Acid + Berberine", "value": 92},
      {"measurement": "cell number, CA (individual animals #1-#3)", "setting": "[1]; [4]", "value": "113 and 165 and 131"},
      {"measurement": "cell number, DG (Dentate Gyrus) (individual animals #1-#3)", "setting": "[1]; [4]", "value": "406 and 289 and 351"},
      {"measurement": "cell number, ENT (Entorhinal Cortex) (individual animals #1-#3)", "setting": "[1]; [4]", "value": "94 and 89 and 93"},
      {"measurement": "survival of calbindin-positive neurons in the entorhinal cortex", "setting": "[1]; [5]", "value": "somewhat increased"},
      {"measurement": "survival rates of granule cells in the dentate gyrus regions, increase", "setting": "[1]; [5]", "value": "doubled; also recorded: two times"},
      {"measurement": "survival rates of pyramidal cells in the CA1 region, increase", "setting": "[1]; [5]", "value": 2.5, "unit": "times"},
      {"measurement": "Average (O.D. relative to H2O2 alone)", "setting": "SH-SY5Y cells; [6]", "value": 208, "unit": "%"},
      {"measurement": "O.D.", "setting": "SH-SY5Y cells; [6]", "value": 0.116},
      {"measurement": "Average (O.D. relative to H2O2 alone)", "setting": "SH-SY5Y cells; N2, H2O2 + berberine 1.5 μg/ml", "value": 287, "unit": "%"},
      {"measurement": "O.D.", "setting": "SH-SY5Y cells; N2, H2O2 + berberine 1.5 μg/ml", "value": 0.16},
      {"measurement": "Average (O.D. relative to H2O2 alone)", "setting": "SH-SY5Y cells; N2, H2O2 + berberine 3 μg/ml", "value": 344, "unit": "%"},
      {"measurement": "O.D.", "setting": "SH-SY5Y cells; N2, H2O2 + berberine 3 μg/ml", "value": 0.192},
      {"measurement": "Average (O.D. relative to H2O2 alone)", "setting": "SH-SY5Y cells; N2, H2O2 + berberine 3.5 μg/ml", "value": 228, "unit": "%"},
      {"measurement": "O.D.", "setting": "SH-SY5Y cells; N2, H2O2 + berberine 3.5 μg/ml", "value": 0.127},
      {"measurement": "density of viable cells in hippocampal CA1", "setting": "[2]", "value": "257±9.6", "unit": "cell/mm^2"},
      {"measurement": "regeneration of nerve endings / formation of neuromuscular junctions", "setting": "[3]", "value": "spread to all muscle fibers; also recorded: reached all muscle fibers to form neuromuscular junctions"}
    ]}
  ]
}
